We go through one compound from ChEMBL document CHEMBL5579829, “Discovery of a potent CDKs/FLT3 PROTAC with enhanced differentiation and proliferation inhibition for AML” (Eur J Med Chem, 2024).

Experiment [1] has as its target T1, Protein cereblon/Cyclin-dependent kinase 9 (Homo sapiens, UniProt P50750+Q96SW2). The experiment in a line: Protac activity at CRBN/CDK9 in human MV4-11 cells assessed as induction of CDK9 degradation at 2 to 32 nM measured after 3 days by Western blot analysis. The experiment is classed as cell-based. The following applies: dose 2-32 nM, time 3.0 day.
The target in experiment [2] is T2, Protein cereblon/Cyclin-dependent kinase 6 (Homo sapiens, UniProt Q00534+Q96SW2). The experiment in a line: Protac activity at CRBN/CDK6 in human MV4-11 cells assessed as induction of CDK6 degradation at 2 to 32 nM measured after 3 days by Western blot analysis. Type of experiment: cell-based. The following applies: dose 2-32 nM, time 3.0 day. Background: In western blotting, separated proteins are transferred to a membrane and probed.

In experiment [3] the test system is Protein cereblon/Receptor-type tyrosine-protein kinase FLT3 (Homo sapiens), P36888+Q96SW2 [UNDEFINED MUTATION]. The experiment in a line: Protac activity at CRBN/FLT3-ITD mutant in human THP-1 cells assessed as induction of FLT3 degradation at 4 to 64 nM measured after 3 days by Western blot analysis. The experiment is classed as cell-based. The following applies: dose 4-64 nM, time 3.0 day.

Experiment [4] has as its target T2, Protein cereblon/Cyclin-dependent kinase 6. The experiment can be described thus: Protac activity at CRBN/CDK6 in human THP-1 cells assessed as induction of CDK6 degradation at 4 to 64 nM measured after 3 days by Western blot analysis. Type of experiment: cell-based. The following applies: dose 4-64 nM, time 3.0 day.
The target in experiment [5] is T3, Protein cereblon/Cyclin-dependent kinase 4 (Homo sapiens, UniProt P11802+Q96SW2). The experiment can be described thus: Protac activity at CRBN/CDK4 in human Kasumi 1 cells assessed as induction of CDK4 degradation at 2 to 32 nM measured after 3 days by Western blot analysis. The experiment is classed as cell-based. The following applies: dose 2-32 nM, time 3.0 day.
Target sequence in this assay (P11802 2-303 limits assumed): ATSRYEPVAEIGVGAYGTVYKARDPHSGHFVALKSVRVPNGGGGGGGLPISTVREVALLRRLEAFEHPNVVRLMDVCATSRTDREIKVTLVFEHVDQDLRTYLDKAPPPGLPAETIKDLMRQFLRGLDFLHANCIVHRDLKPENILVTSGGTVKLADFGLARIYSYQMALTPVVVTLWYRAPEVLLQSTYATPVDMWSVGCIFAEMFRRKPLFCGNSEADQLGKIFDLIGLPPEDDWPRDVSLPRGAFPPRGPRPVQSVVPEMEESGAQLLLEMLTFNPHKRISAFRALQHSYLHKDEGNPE
Target sequence in this assay (Q96SW2 whole entry partner): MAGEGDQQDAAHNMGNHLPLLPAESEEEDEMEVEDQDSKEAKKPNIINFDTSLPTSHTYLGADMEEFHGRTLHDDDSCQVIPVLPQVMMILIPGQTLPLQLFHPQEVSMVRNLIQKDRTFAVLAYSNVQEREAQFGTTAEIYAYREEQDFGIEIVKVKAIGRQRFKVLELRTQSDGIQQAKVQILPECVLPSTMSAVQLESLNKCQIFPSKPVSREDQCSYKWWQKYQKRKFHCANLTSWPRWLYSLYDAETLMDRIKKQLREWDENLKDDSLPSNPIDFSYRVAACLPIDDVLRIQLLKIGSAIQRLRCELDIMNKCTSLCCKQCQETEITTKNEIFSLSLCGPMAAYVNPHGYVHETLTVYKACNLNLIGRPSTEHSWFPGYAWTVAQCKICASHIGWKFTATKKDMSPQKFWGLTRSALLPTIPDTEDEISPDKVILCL

In experiment [6] the target is T1, Protein cereblon/Cyclin-dependent kinase 9. The experiment in a line: Protac activity at CRBN/CDK9 in human Kasumi 1 cells assessed as induction of CDK9 degradation at 2 to 32 nM measured after 3 days by Western blot analysis. Type of experiment: cell-based. The following applies: dose 2-32 nM, time 3.0 day.
In experiment [7] the test system is HL-60. The experiment can be described thus: Induction of pro-differentiation of human HL-60 cells assessed as increase in CD11b expression at 6.25 nM measured after 3 days by immunostaining-based flow cytometry relative to 500 nM CPS2. The experiment is classed as functional. The following applies: time 3 day. (A flow cytometer gives signals particle by particle.)

For experiment [8], the system named is HL-60. The experiment in a line: Induction of pro-differentiation of human HL-60 cells assessed as CD11b expression at 2 nM measured after 3 days by immunostaining-based flow cytometry (reference value: 8.32 to 10.55%). The experiment is classed as functional. The following applies: time 3 day.
For experiment [9], the system named is MV4-11. The experiment in a line: Antiproliferative activity against human MV4-11 cells measured after 1 to 3 days by CCK-8 assay. Type of experiment: functional, cell-based. In general terms: Tetrazolium dyes change colour on reduction, which living cells bring about.
In experiment [10] the test system is HL-60. The experiment in a line: Induction of pro-differentiation of human HL-60 cells assessed as increase in CD11b expression at 6.25 nM measured after 3 days by immunostaining-based flow cytometry relative to control. The experiment is classed as functional. The following applies: time 3 day.
In experiment [11] the test system is MOLM-13. The experiment in a line: Antiproliferative activity against human MOLM-13 cells measured after 1 to 3 days by CCK-8 assay. The experiment is classed as functional, cell-based.
Experiment [12] concerns the target Protein cereblon/Receptor-type tyrosine-protein kinase FLT3 (Homo sapiens, UniProt P36888+Q96SW2). The experiment can be described thus: Protac activity at CRBN/FLT3-ITD in human HL-60 cells assessed as induction of FLT3 degradation measured after 3 days by Western blot analysis. The experiment is classed as cell-based.
Experiment [13] addresses T4, Protein cereblon/Cyclin-dependent kinase 2 (Homo sapiens, UniProt P24941+Q96SW2). The experiment can be described thus: Protac activity at CRBN/CDK2 in human HL-60 cells assessed as induction of CDK2 degradation at 10 nM measured after 24 hrs in presence of proteasome inhibitor MG132 by Western blot analysis. Type of experiment: cell-based.
The target of experiment [14] is T4, Protein cereblon/Cyclin-dependent kinase 2. The experiment can be described thus: Protac activity at CRBN/CDK2 in human HL-60 cells assessed as induction of CDK2 degradation by Western blot analysis. Type of experiment: cell-based.
The subject of experiment [15] is HL-60. The experiment can be described thus: Induction of pro-differentiation of human HL-60 cells assessed as CD11b expression at 4 nM measured after 3 days by immunostaining-based flow cytometry (reference value: 8.32 to 10.55%). The experiment is classed as functional. The following applies: time 3 day.
The subject of experiment [16] is HL-60. The experiment in a line: Induction of pro-differentiation of human HL-60 cells assessed as CD11b expression at 2 nM measured after 5 days by immunostaining-based flow cytometry (reference value: 10.08 to 10.33%). The following applies: time 5 day. Type of experiment: functional.
The target in experiment [17] is T5, Protein cereblon/Cyclin-dependent kinase 5 (Homo sapiens) (UniProt Q00535+Q96SW2). The experiment in a line: Protac activity at CRBN/CDK5 in human THP-1 cells assessed as induction of CDK5 degradation at 4 to 64 nM measured after 3 days by Western blot analysis. The following applies: dose 4-64 nM, time 3.0 day. Type of experiment: cell-based.
In experiment [18] the target is T3, Protein cereblon/Cyclin-dependent kinase 4. The experiment in a line: Protac activity at CRBN/CDK4 in human HL-60 cells assessed as induction of CDK4 degradation measured after 3 days by Western blot analysis. The experiment is classed as cell-based.
Target sequence in this assay (P11802 whole entry): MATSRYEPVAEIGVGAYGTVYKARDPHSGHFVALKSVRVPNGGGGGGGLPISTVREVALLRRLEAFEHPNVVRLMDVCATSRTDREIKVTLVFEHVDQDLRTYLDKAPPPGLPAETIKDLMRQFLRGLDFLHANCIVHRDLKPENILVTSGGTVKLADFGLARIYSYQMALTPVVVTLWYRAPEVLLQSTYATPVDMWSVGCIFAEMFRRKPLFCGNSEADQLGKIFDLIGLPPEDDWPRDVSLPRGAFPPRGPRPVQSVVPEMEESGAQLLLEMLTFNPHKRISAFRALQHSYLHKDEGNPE
Target sequence in this assay (Q96SW2 whole entry): as the sequence (Q96SW2 whole entry partner) above
Experiment [19] has the same target. The experiment can be described thus: Protac activity at CRBN/CDK4 in human THP-1 cells assessed as induction of CDK4 degradation at 4 to 64 nM measured after 3 days by Western blot analysis. Type of experiment: cell-based. The following applies: dose 4-64 nM, time 3.0 day.
Target sequence in this assay (P11802 2-303 limits assumed): as the sequence (P11802 2-303 limits assumed) above
Target sequence in this assay (Q96SW2 whole entry partner): as the sequence (Q96SW2 whole entry partner) above
Experiment [20] addresses T4, Protein cereblon/Cyclin-dependent kinase 2. The experiment in a line: Protac activity at CRBN/CDK2 in human THP-1 cells assessed as induction of CDK2 degradation at 4 to 64 nM measured after 3 days by Western blot analysis. The experiment is classed as cell-based. The following applies: dose 4-64 nM, time 3.0 day.
The target of experiment [21] is T5, Protein cereblon/Cyclin-dependent kinase 5 (Homo sapiens). The experiment can be described thus: Protac activity at CRBN/CDK5 in human MV4-11 cells assessed as induction of CDK5 degradation at 2 to 32 nM measured after 3 days by Western blot analysis. Type of experiment: cell-based. The following applies: dose 2-32 nM, time 3.0 day.
Experiment [22] addresses T4, Protein cereblon/Cyclin-dependent kinase 2. The experiment in a line: Protac activity at CRBN/CDK2 in human HL-60 cells assessed as induction of CDK2 degradation by Western blot analysis relative to control. The experiment is classed as cell-based.
Experiment [23] shares this target. The experiment can be described thus: Protac activity at CRBN/CDK2 in human HL-60 cells assessed as induction of CDK2 degradation measured after 3 days by Western blot analysis. The experiment is classed as cell-based.

Structures are written as SMILES. The source made the active and inactive calls. The rule behind the calls is not given here.

T5 sequence (Q00535 whole entry, looked up): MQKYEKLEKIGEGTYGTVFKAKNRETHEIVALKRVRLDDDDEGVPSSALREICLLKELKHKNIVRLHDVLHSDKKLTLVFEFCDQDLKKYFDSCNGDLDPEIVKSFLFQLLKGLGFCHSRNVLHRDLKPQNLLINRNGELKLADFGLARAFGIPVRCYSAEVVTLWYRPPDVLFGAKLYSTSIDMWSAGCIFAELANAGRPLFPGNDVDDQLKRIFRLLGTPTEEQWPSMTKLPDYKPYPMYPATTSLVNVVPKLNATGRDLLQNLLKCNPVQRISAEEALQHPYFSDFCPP
T5 sequence (Q96SW2 whole entry, looked up): as the sequence (Q96SW2 whole entry partner) above
T2 sequence (Q00534 whole entry, looked up): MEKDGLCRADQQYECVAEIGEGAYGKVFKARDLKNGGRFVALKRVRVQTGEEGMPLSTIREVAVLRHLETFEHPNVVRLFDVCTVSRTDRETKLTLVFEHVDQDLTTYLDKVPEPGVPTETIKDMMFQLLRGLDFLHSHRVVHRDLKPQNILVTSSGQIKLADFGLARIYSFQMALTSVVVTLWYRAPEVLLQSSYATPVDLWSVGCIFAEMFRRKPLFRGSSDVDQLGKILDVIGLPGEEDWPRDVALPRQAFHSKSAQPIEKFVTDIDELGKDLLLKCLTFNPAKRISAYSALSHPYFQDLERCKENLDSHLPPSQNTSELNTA
T2 sequence (Q96SW2 whole entry, looked up): as the sequence (Q96SW2 whole entry partner) above
T1 sequence (P50750 whole entry, looked up): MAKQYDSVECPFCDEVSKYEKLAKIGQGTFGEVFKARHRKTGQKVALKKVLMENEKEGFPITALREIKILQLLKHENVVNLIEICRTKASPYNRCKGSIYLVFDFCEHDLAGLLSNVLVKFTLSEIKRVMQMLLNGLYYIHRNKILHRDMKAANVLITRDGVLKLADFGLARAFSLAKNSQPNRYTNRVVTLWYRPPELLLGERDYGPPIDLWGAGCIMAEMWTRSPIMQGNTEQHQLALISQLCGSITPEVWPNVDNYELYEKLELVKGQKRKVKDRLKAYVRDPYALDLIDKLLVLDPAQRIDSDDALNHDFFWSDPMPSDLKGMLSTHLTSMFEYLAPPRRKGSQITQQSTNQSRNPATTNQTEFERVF
T1 sequence (Q96SW2 whole entry, looked up): as the sequence (Q96SW2 whole entry partner) above
Sequence of Protein cereblon/Receptor-type tyrosine-protein kinase FLT3 (P36888 whole entry, looked up, change not shown): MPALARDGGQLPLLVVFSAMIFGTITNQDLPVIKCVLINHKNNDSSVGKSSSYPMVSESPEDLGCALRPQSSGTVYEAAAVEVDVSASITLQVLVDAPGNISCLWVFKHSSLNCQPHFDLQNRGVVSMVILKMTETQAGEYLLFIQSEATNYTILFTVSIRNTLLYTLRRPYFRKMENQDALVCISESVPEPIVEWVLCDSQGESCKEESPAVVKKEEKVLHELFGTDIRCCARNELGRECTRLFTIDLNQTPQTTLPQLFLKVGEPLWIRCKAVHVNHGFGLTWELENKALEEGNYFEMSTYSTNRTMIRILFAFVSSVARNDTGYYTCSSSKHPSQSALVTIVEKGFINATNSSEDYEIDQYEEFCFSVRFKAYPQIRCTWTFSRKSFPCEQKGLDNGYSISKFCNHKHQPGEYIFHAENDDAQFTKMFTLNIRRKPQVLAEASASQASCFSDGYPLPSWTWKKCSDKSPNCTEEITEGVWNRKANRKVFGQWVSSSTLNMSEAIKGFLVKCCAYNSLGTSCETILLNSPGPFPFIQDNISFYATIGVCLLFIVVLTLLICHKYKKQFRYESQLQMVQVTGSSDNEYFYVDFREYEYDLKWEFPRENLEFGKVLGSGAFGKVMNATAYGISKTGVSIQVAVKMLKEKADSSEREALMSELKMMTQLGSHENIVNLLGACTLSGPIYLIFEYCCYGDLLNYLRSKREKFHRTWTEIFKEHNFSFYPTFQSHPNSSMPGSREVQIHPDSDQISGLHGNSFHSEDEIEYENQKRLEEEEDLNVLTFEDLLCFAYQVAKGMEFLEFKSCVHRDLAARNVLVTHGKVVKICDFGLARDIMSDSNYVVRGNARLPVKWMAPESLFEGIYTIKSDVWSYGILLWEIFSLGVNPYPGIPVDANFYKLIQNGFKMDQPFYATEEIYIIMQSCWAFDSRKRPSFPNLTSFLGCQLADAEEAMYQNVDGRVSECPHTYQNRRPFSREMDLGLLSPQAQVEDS
Sequence of Protein cereblon/Receptor-type tyrosine-protein kinase FLT3 (Q96SW2 whole entry, looked up, change not shown): as the sequence (Q96SW2 whole entry partner) above
Sequence of Protein cereblon/Receptor-type tyrosine-protein kinase FLT3 (Homo sapiens), P36888+Q96SW2 [UNDEFINED MUTATION] (P36888 whole entry, looked up, change not shown): as the sequence (P36888 whole entry, looked up, change not shown) above
Sequence of Protein cereblon/Receptor-type tyrosine-protein kinase FLT3 (Homo sapiens), P36888+Q96SW2 [UNDEFINED MUTATION] (Q96SW2 whole entry, looked up, change not shown): as the sequence (Q96SW2 whole entry partner) above

Take `O=C1CCC(N2C(=O)c3ccc(N4CCC(CN5CCN(Cc6ccc(NC(=O)c7n[nH]cc7Nc7ncnc8[nH]ccc78)cc6)CC5)CC4)cc3C2=O)C(=O)N1` (stereo not drawn): the outcome in [1], in experiment [2], in [3], in experiment [4], in experiment [5] and in experiment [6] was Active. Also, the outcome in experiment [19] and in [20] was Active. Besides, the “fold change (FC)” value in experiment [7] is listed as 2.2; in [10], 5.7. In addition, the Activity in [8] came to 29.09%; in experiment [15] it was 43.94%; in experiment [16], 36.57%. Further, the concentration for half-maximal inhibition (IC50) in experiment [9] was determined as 2.9 nM; in experiment [11], 4.52 nM. In addition, the DC50 in [12] stood at 5.69 nM; in experiment [14], 12.7 nM; in experiment [18] it was 4.41 nM; in experiment [23], 4.74 nM. For the same compound, the result in experiment [13], in experiment [17] and in experiment [21] was inactive. Further, in [22], the maximal response (Emax) came to 81.9%.

What is called IC50 is the concentration at which inhibition is half-maximal. A higher IC50 goes with weaker potency in that assay. The term DC50 denotes the concentration giving 50% degradation. The Emax is the maximal effect, on the per cent scale that the assay sets.
